For assay [1], the target named is BTK tyrosine kinase protein (Homo sapiens (Human), UniProt Q06187). Kind of assay: Inhibitory activity against Bruton kinase (BTK) at molecular level (ELISA). The assay is classed as biochemical. Here is the method: Poly(Glu, Tyr) 4:1 as a substrate for enzyme catalyzed reaction was diluted with potassium-free PBS (10 mM sodium phosphate buffer, 150 mM NaCl, pH 7.2-7.4) to […] to coat a ELISA plate. The plate was cultured at 37° C. for 12-16 h, washed with 200 μL/well of T-PBS (PBS containing 0.1% of Tween-20) three times, and dried in an oven at 37° C. for 1-2 h. Into the above ELISA plate coated with the substrate, an ATP solution diluted with a reaction buffer (50 mM HEPES, pH 7.4, 50 mM MgCl2, 5 mM MnCl2, 0.2 mM Na3VO4, 1 mM DTT) was first added at 50 μL/well (concentration of 10 μM). Then, a test compound diluted by 1% DMSO to a suitable concentration was added (10 μL/well), and negative control well and positive compound control well were provided separately. Finally, the reaction was initiated by adding BTK tyrosine kinase protein diluted in 40 μL of reaction buffer.
Chain of BTK tyrosine kinase protein (Q06187 whole entry): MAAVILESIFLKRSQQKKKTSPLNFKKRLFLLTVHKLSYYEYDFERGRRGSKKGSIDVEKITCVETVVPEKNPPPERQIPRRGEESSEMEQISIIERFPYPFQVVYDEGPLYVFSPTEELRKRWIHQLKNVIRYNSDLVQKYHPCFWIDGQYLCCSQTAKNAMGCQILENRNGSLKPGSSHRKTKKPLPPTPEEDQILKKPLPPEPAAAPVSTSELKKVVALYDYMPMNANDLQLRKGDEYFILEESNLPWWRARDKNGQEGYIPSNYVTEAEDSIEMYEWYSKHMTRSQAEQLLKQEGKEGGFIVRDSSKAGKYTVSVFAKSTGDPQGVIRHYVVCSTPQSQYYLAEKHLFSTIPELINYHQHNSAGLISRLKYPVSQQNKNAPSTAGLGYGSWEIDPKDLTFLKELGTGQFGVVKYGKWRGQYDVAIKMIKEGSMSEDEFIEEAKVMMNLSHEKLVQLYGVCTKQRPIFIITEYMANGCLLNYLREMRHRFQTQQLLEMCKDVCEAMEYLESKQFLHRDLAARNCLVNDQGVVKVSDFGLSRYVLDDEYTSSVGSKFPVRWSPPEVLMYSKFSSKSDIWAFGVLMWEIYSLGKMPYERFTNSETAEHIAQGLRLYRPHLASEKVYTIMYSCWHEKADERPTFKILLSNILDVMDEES
The above reaction system was placed on a shaker (100 rpm) at 37° C. for 1 h, then washed with T-PBS for three times, primary antibody PY99 (Cell Signaling Technology) was added at 100 μL/well, and the reaction was conducted on the shaker at 37° C. for 0.5 h. After the plate was washed with T-PBS, secondary antibody horseradish peroxidase-labeled goat anti-mouse IgG was added at 100 μL/well, and the reaction was conducted on the shaker at 37° C. for 0.5 h. After the plate was washed with T-PBS, 2 mg/mL of OPD developing solution was added at 100 μL/well, and the reaction was conducted in the dark at 25° C. for 1 to 10 minutes. Then the reaction was quenched by adding 2 M H2SO4 at 50 μL/well. The data were read on a wavelength-tunable microplate reader ELISA SPECTRA MAX 190 at a wavelength of 490 nm.
IC50 was calculated by fitting the inhibition curve using a four-parameter method.

Assay [2] relates to human B lymphoma Ramos cells. Kind of assay: In vitro proliferation inhibition of Ramos cells (MTT). Particulars: for IC50: Homo sapiens, Ramos cells, 48 hours, MTT. In kind it is cell-based. Here is the method: (§1) Cells were seeded at 10000-15000/well into a 96-well culture plate, different concentrations of a test compound were added to each well (3 replicate-wells for each concentration), and blank control, positive compound control and negative control were provided. 48 hours after the administration of the drugs, […] of MTT (5 mg/ml) was added, and the plate was incubated at 37° C. for 4 h, and then […] of a triad solution (10% SDS, 5% isobutanol, 0.01 M HCl) was added. The resultant was cultured at 37° C. overnight, and the OD value was measured at a wavelength of 570 nm using a wavelength-tunable microplate reader ELISA SPECTRA MAX 190. […] The IC50 value was calculated by fitting the inhibition curve using a four-parameter method. The experiment was repeated 3 times independently.

The subject of assay [3] is human diffuse large B lymphoma TMD8 cells. Description: In vitro proliferation inhibition of TMD8 cells (MTT). Particulars: 48 hours, read-out: IC50 for the inhibition TMD of cells. The assay is classed as cell-based. Here is the method: as §1, with “added.” for “added. The resultant was cultured at 37° C. overnight, and the OD value was measured at a wavelength of 570 nm using a wavelength-tunable microplate reader ELISA SPECTRA MAX 190.”

Setting [4] is: BTK kinase ELISA, ATP 10 μM, read-out: IC50.

The structures appear in SMILES notation. Where two headings read alike, the source gives them in different places.

`C=CC(=O)N[C@H]1Cn2c(c(-c3ccc(C(=O)Nc4ccccn4)cc3)c3c(N)ncnc32)C1C` (stereo partly drawn) [Compound S22, 4-((7R)-7-acrylamido-4-amino-6-methyl-7,8-dihydro-6H-pyrimido[5,4-b]pyrrolizin-5-yl)-N-(pyridin-2-yl)benzamide]: the IC50 in assay [1] (setting [4]) was 1 to 10 nM.

For the compound `C=CC(=O)N[C@@H]1CCc2c(-c3ccc(C(=O)Nc4ccccn4)cc3)c3c(N)ncnc3n2C1` [Compound S13, (R)-4-(8-acrylamido-4-amino-6,7,8,9-tetrahydropyrimido[5,4-b]indolizine-5-yl)-N-(pyridin-2-yl)benzamide], the IC50 in assay [1] (setting [4]) lay in the range of 1 to 10 nM.

For the compound `C=CS(=O)(=O)N[C@@H]1CCc2c(-c3ccc(Oc4ccccc4)cc3)c3c(N)ncnc3n2C1` [Compound S9, (R)—N-(4-amino-5-(4-phenoxyphenyl)-6,7,8,9-tetrahydropyrimido[5,4-b]indolizine-8-yl)vinylsulfamide], the IC50 in assay [1] (setting [4]) lay in the range of 10 to 100 nM.

Regarding `C=CC(=O)N[C@@H]1CCc2c(-c3ccc(C(=O)N[C@@H](COC)c4ccccc4)cc3)c3c(N)ncnc3n2C1` [Compound S17, 4-((R)-8-acrylamido-4-amino-6,7,8,9-tetrahydropyrimido[5,4-b]indolizine-5-yl)-N—((R)-2-methoxy-1-phenylethyl)benzamide], the IC50 in assay [1] (setting [4]) was in the range of 1 to 10 nM.

For `CC(C)(C)C=C(C#N)C(=O)N[C@@H]1CCc2c(-c3ccc(Oc4ccccc4)cc3)c3c(N)ncnc3n2C1` [Compound S4, (R)—N-(4-amino-5-(4-phenoxyphenyl)-6,7,8,9-tetrahydropyrimido[5,4-b]indolizine-8-yl)-2-cyano-4,4-dimethylpent-2-enamide], the IC50 in assay [1] (setting [4]) is greater than 100 nM.

As to `C=CC(=O)N[C@@H]1CCc2c(-c3ccc(Oc4ccccc4)cc3)c3c(N)ncnc3n2C1` [Compound S1, (R)—N-(4-amino-5-(4-phenoxyphenyl)-6,7,8,9-tetrahydropyrimido[5,4-b]indolizine-8-yl)acrylamide], the values for the IC50 in assay [2] and in assay [3] were 94700 ± 45100 nM and 5.8 nM, respectively. The “cell activity against human B lymphoma Ramos cells” value in assay [2] (qualitative statement) is given as “low cell activity”.

Take `C=CC(=O)NCC(=O)N[C@@H]1CCc2c(-c3ccc(Oc4ccccc4)cc3)c3c(N)ncnc3n2C1` [Compound S6, (R)—N-(2-((4-amino-5-(4-phenoxyphenyl)-6,7,8,9-tetrahydropyrimido[5,4-b]indolizine-8-yl)amino)-2-oxoethyl)acrylamide]: the values for the IC50 in assay [1] (setting [4]) and in assay [2] were 1 to 10 nM and 5500 ± 1000 nM, respectively.

Consider `C=CC(=O)N[C@@H]1CCc2c(-c3ccc(C(=O)Nc4ccc(F)cn4)cc3)c3c(N)ncnc3n2C1` [Compound S15, (R)-4-(8-acrylamido-4-amino-6,7,8,9-tetrahydropyrimido[5,4-b]indolizine-5-yl)-N-(5-fluoropyridin-2-yl)benzamide], for which the IC50 in assay [1] (setting [4]) lay within 1 to 10 nM.

Take `C=CC(=O)N[C@@H]1CCc2c(-c3ccc(Oc4ccc(F)cc4)cc3)c3c(N)ncnc3n2C1` [Compound S11, (R)—N-(4-amino-5-(4-(4-fluorophenoxy)phenyl)-6,7,8,9-tetrahydropyrimido[5,4-b]indolizine-8-yl)acrylamide]: in assay [1] (setting [4]), the IC50 is less than 1 nM.

For the compound `C=CC(=O)N1CCC[C@@H](n2nc(-c3ccc(Oc4ccccc4)cc3)c3c(N)ncnc32)C1` [Ibrutinib, reference compound], the IC50 in assay [2] was roughly 8530 nM; in assay [3], 4.5 nM.

In turn, `C=CC(=O)NC1CCc2c(-c3ccc(Oc4ccccc4)cc3)c3c(N)ncnc3n2C1` (racemic) [Compound S3, N-(4-amino-5-(4-phenoxyphenyl)-6,7,8,9-tetrahydropyrimido[5,4-b]indolizine-8-yl)acrylamide] had an IC50 in assay [2] of 11400 ± 800 nM.

With `C=CC(=O)N[C@@H]1CCc2c(-c3ccc(Oc4ccc(C(F)(F)F)cc4)cc3)c3c(N)ncnc3n2C1` [Compound S12, (R)—N-(4-amino-5-(4-(4-(trifluoromethyl)phenoxy)phenyl)-6,7,8,9-tetrahydropyrimido[5,4-b]indolizine-8-yl)acrylamide], the IC50 in assay [1] (setting [4]) was less than 1 nM.

For the compound `C=CC(=O)N[C@H]1Cn2c(c(-c3ccc(Oc4ccccc4)cc3)c3c(N)ncnc32)C1=C` [Compound S18, (R)—N-(4-amino-6-methylidene-5-(4-phenoxyphenyl)-7,8-dihydro-6H-pyrimido[5,4-b]pyrrolizin-7-yl)acrylamide], the IC50 in assay [1] (setting [4]) was in the range of 1 to 10 nM.

In the case of `CN(C)C/C=C/C(=O)N[C@@H]1CCc2c(-c3ccc(Oc4ccccc4)cc3)c3c(N)ncnc3n2C1` [Compound S5, (R,E)-N-(4-amino-5-(4-phenoxyphenyl)-6,7,8,9-tetrahydropyrimido[5,4-b]indolizine-8-yl)-4-(dimethylamino)but-2-enamide], the values for the IC50 in assay [1] (setting [4]) and in assay [2] were less than 1 nM and 6600 ± 2100 nM, respectively.

In the case of `C=C1c2c(-c3ccc(Oc4ccccc4)cc3)c3c(N)ncnc3n2C[C@@H]1NC(=O)C#CC` [Compound S19, (R)—N-(4-amino-6-methylidene-5-(4-phenoxyphenyl)-7,8-dihydro-6H-pyrimido[5,4-b]pyrrolizin-7-yl)but-2-ynylamide], the IC50 in assay [1] is less than 1 nM; in assay [2] it was 16900 ± 7900 nM.

For the compound `CC#CC(=O)N[C@@H]1CCc2c(-c3ccc(Oc4ccccc4)cc3)c3c(N)ncnc3n2C1` [Compound S10, (R)—N-(4-amino-5-(4-phenoxyphenyl)-6,7,8,9-tetrahydropyrimido[5,4-b]indolizine-8-yl)But-2-ynylamide], the values for the IC50 in assay [1], in assay [2] and in assay [3] were 1 to 10 nM, 8720 ± 8580 nM and 30 nM, respectively.

As for `C=CC(=O)NC(C)C(=O)N[C@@H]1CCc2c(-c3ccc(Oc4ccccc4)cc3)c3c(N)ncnc3n2C1` (stereo partly drawn) [Compound S7, N-(1-(((R)-4-amino-5-(4-phenoxyphenyl)-6,7,8,9-tetrahydropyrimido[5,4-b]indolizine-8-yl)imino)-1-oxoprop-2-yl) acrylamide], the IC50 in assay [1] (setting [4]) was 10 to 100 nM.

Consider `CC#CC(=O)N[C@@H]1CCc2c(-c3ccc(C(=O)Nc4ccccn4)cc3)c3c(N)ncnc3n2C1` [Compound S14, (R)-4-(4-amino-8-(but-2-ynylamide)-6,7,8,9-tetrahydropyrimido[5,4-b]indolizine-5-yl)-N-(pyridin-2-yl)benzamide], for which, in assay [1] (setting [4]), the IC50 was in the range of 1 to 10 nM.

For `C=CC(=O)N[C@H]1Cn2c(c(-c3ccc(Oc4ccccc4)cc3)c3c(N)ncnc32)C1C` (stereo partly drawn) [Compound S21, N-((7R)-4-amino-6-methyl-5-(4-phenoxyphenyl)-7,8-dihydro-6H-pyrimido[5,4-b]pyrrolizin-7-yl)acrylamide], in assay [1] (setting [4]), the half-inhibitory concentration (IC50) lay within 1 to 10 nM.

In the case of `C=CC(=O)N[C@@H]1CCc2c(-c3ccc(C(=O)Nc4cc(C(F)(F)F)ccn4)cc3)c3c(N)ncnc3n2C1` [Compound S16, (R)-4-(8-acrylamido-4-amino-6,7,8,9-tetrahydropyrimido[5,4-b]indolizine-5-yl)-N-(4-(trifluoromethyl)pyridin-2-yl)benzamide], the IC50 in assay [1] (setting [4]) fell in the range of 1 to 10 nM.

As to `C=CC(=O)NC1(C(=O)N[C@@H]2CCc3c(-c4ccc(Oc5ccccc5)cc4)c4c(N)ncnc4n3C2)CC1` [Compound S8, (R)-1-acrylamido-N-(4-amino-5-(4-phenoxyphenyl)-6,7,8,9-tetrahydropyrimido[5,4-b]indolizine-8-yl)cyclopropanecarboxamide], the IC50 in assay [1] (setting [4]) was greater than 100 nM.

For the compound `C=CC(=O)N[C@H]1Cn2c(c(-c3ccc(C(=O)Nc4ccccn4)cc3)c3c(N)ncnc32)C1=C` [Compound S20, (R)-4-(7-acrylamido-4-amino-6-methylidene-7,8-dihydro-6H-pyrimido[5,4-b]pyrrolizin-5-yl)-N-(pyridin-2-yl)benzamide], in assay [1] (setting [4]), the IC50 lay in the range of 1 to 10 nM.

What is called IC50 is the midpoint of a concentration-inhibition curve.

The values above are taken from patent US10829491B2, “Pyrimido[5,4-B]indolizine or pyrimido[5,4-B]pyrrolizine compound, preparation method and use thereof” (SHANGHAI INSTITUTE OF MATERIA MEDICA, CHINESE ACADEMY OF …, priority 2016, dated 2020).
